Several values for one entry are separate records, joined by “and”; a condition that tells them apart may be missing. Identical values can stand only once. Like-named read-outs stand apart in the source and are kept apart here.
Key:
CHO-K1 cells = assay: CHO-K1 viability (ATPlite); format: cell-based
Protocol: The viability of NHBE and CHO-K1 cells was quantified using ATP as an indirect read out of the potential cytotoxicity of the compounds. […] Plates were shaken and covered with aluminium foil for 25 min. Luminescence was measured in an Envision reader (Perkin Elmer). Evaluation of viability in CHO-K1 cells was used as an internal compound cytotoxicity standard across cellular assays. […] The plates were incubated for 24 h at 37°C in 5% CO2. After the incubation period, the culture medium was removed and washed with 100 μl of DPBS. Test compounds were dissolved and serially diluted in 100% DMSO. A final 1/100 dilution of each concentration was performed using F12 culture medium with 0.5% FBS. A volume of 100 μl culture medium containing the compounds or 1% DMSO (for control wells) was added to the wells containing the cells and the plate was incubated again 24h. After 24h of compound exposure, cells were washed with DPBS. Then, 100 μl of PBS were added, followed by the addition of 100 μl of ATPlite™ reagent. The plate was shaken for 25 minutes using a microtiter plate shaker. Luminescence was measured using a Luminoskan Ascent luminometer (Thermo Fisher Scientific).
For CHO-K1 viability assays, a standard curve of cells was included in the plate. Luminescence values versus cell number were plotted and the data adjusted to a linear equation. Luminescence values of the samples were interpolated to obtain number of cells. IC50 values were obtained by non-linear regression using Activity Base software (IDBS) and a four-parameter log equation.

[1] = tested on: TSLP production in NHBE cells; assay: TSLP HTRF assay (TSLP production in poly I:C / IL-4 stimulated NHBE cells); format: cell-based, human; parameters: Inhibition of TSLP production in NHBE (% as indicated): concentration or dose not given beside the values
Protocol: For dose response curves determinations, stocks of test compounds at a concentration of 1.33x10^-3 M in DMSO were sequentially diluted at 1:4 dilution steps before further 1/50 dilution in BEBM medium containing 1x ITS and 0.1% BSA. For the highest 4 μM concentration test compounds were resuspended in DMSO at a concentration of 2.5x10^-3 M and diluted 1/25 in BEBM medium containing 1x ITS and 0.1% BSA before adding 1 μl to the wells containing the cells.
All subsequent steps were automated using a Sciclone® G3 workstation (Perkin Elmer) with a Twister™ II robot (Perkin Elmer). […] 1 μl of test compound solution prepared at 25x concentration was added to the wells containing NHBE cells. The plates were then incubated during 90 minutes at 37°C, 5% CO2, 90% humidity before adding poly I:C (Invivogen HMW Tirl-pic-5) and human IL-4 (Peprotech 200–04) stimulus in 4 μl of BEBM medium containing 1x ITS, 0.1% BSA and 0.1% DMSO using a Multidrop™. […] Cells were then incubated for 24h in the presence of test compounds and stimulus at 37°C, 5% CO2 and 90% humidity conditions. After the 24h incubation period the plates were transferred to a CyBi®-Well platform (CyBio AG) to collect 10 μl of the supernatants which were transferred to a new plate. TSLP levels in the supernatant were determined using a homogeneous Time-Resolved Fluorescence (HTRF) assay custom developed by Cisbio. The assay was based in the use of a donor dye (europium cryptate) coupled to a monoclonal anti-TSLP antibody and an acceptor dye (d2) coupled to a second polyclonal anti-TSLP antibody. […] 10 μl of the resulting solution was then used to determine TSLP levels as described above.
The standard curve was built with eight points prepared in ITS/BSA in BEBM medium without supplements, starting at 700 pg/ml and diluted 1:2, with medium alone being zero TSLP. Fitting model corresponded to equation 100 of Excel fit software. Data from the primary phenotypic screen was visualized using Vortex (Dotmatics). […] For compound selection the maximum inhibition of the two individual duplicate values was taken into account. Dose response confirmation was performed at single point in the 2 donors tested. 9 point curves were run starting at 4 μM concentration by doing serial 1:4 dilutions in cells derived from both donors.

[2] = tested on: TBK1/IKKɛ, PDK-1, Aurora B, ERK8, MARK, NUAK1, MLK, c-Kit, CDK2/CyclinE, Chk1, GSK-3β, PKA, KDR, T-Fyn and PCK; parameters: method as in PMID 19307177; conditions: read-out: IC50 on BX795 targets within the pharmacological range; cited from earlier work
mTOR = molecular target: T1, mTOR (Homo sapiens, UniProt P42345); conditions: read-out: reported kinase inhibitory activity (IC50); cited from earlier work
T1 construct: Eurofins Pharma Discovery Services (contract assay service)

[3] = tested on: TSLP mRNA levels in NHBE cells; assay: TSLP mRNA real-time PCR (qPCR) in NHBE cells; format: cell-based, human; parameters: TSLP mRNA upregulation (% versus control) / % Inhibition of mRNA: dose or concentration left out as unconfirmed; conditions: for % Inhibition of mRNA at [4 μM] ± SD: NHBE donor #1, 6 h stimulation; for % Inhibition of mRNA: individual values, donor #1
[4] = Homo sapiens, NHBE, 24 h, NHBE cells donor #1, poly I:C / IL-4, 24h, geometric mean, read-out: Inhibition of TSLP protein production (IC50, μM) (95% CI)
[5] = individual values, donor #1, read-out: Inhibition of TSLP production in NHBE (IC50)

## COc1ccc(-c2ccc3c(N4CCOC[C@@H]4C)nc(N4CCOC[C@@H]4C)nc3n2)cc1CO [AZD8055, reference compound]
CHO-K1 cells
  Inhibition of CHO viability % Inhibition ± SD at 3.12 μM: 20.47% ± 4.6 (n = 4)
[1]; [4]
  IC50: 0.002 µM
[1]; [5]
  IC50: 0.00097 µM and 0.00482 µM and 0.00467 µM

## O=C(NCCCNc1nc(Nc2cccc(NC(=O)N3CCCC3)c2)ncc1I)c1cccs1 [BX795, reference compound]
[2]
  IC50: < 1 µM
[1]; Homo sapiens, NHBE, donor #1, representative curve, read-out: IC50
  IC50: 0.0591 µM
[1]; Homo sapiens, NHBE, donor #2, representative curve, read-out: IC50
  IC50: 0.079 µM
[1]; individual values, donor #1, read-out: Inhibition of TSLP production in NHBE (IC50, mM) by BX795, Donor #1
  IC50: 0.048 µM and 0.059 µM and 0.168 µM and 0.177 µM
[1]; individual values, donor #2, read-out: Inhibition of TSLP production in NHBE (IC50, mM) by BX795, Donor #2
  IC50: 0.198 µM and 0.078 µM and 0.183 µM and 0.143 µM

## CO[C@H]1C[C@@H]2CC[C@@H](C)[C@@](O)(O2)C(=O)C(=O)N2CCCC[C@H]2C(=O)O[C@H]([C@H](C)C[C@@H]2CC[C@@H](OCCO)[C@H](OC)C2)CC(=O)[C@H](C)/C=C(\C)[C@@H](O)[C@@H](OC)C(=O)[C@H](C)C[C@H](C)/C=C/C=C/C=C/1C [Everolimus, reference compound]
CHO-K1 cells
  Inhibition of CHO viability % Inhibition ± SD at 3.12 μM: -0.16% ± 2.3 (n = 4)
mTOR
  IC50: 0.001 to 0.002 µM
[1]; Homo sapiens, 0.031 μM, NHBE donor #1, read-out: Inhibition of TSLP protein production % Inhibition ± SD at
  inhibition at 0.031 µM: 79.4%
[1]; individual values, donor #1
  Inhibition of TSLP production in NHBE (% as indicated): 62.23% and 73.18% and 78.84% and 103.38%

## COC(=O)Nc1nc2ccc(C(=O)c3cccs3)cc2[nH]1 [Nocodazole, reference compound]
[3]
  % Inhibition of mRNA at [4 μM] ± SD: 84.62 ± 1.76%
  % Inhibition of mRNA: 83.366% and 85.867%
[1]; [4]
  IC50: 0.9 µM
[1]; [5]
  IC50: 1.23 µM and 0.512 µM and 1.16 µM

## C[C@@H]1O[C@@H](O[C@H]2C[C@@H](O)[C@]3(CO)[C@H]4[C@H](O)C[C@]5(C)[C@@H](C6=CC(=O)OC6)CC[C@]5(O)[C@@H]4CC[C@]3(O)C2)[C@H](O)[C@H](O)[C@H]1O [Ouabain, reference compound]
[3]
  % Inhibition of mRNA at [4 μM] ± SD: 94.64 ± 0.33%
  % Inhibition of mRNA: 94.409% and 94.877%
[1]; [4]
  IC50: 0.016 µM
[1]; Homo sapiens, NHBE, individual values, donor #1, read-out: Inhibition of TSLP production in NHBE (IC50)
  IC50: 0.022 µM
[1]; [5]
  IC50: 0.013 µM and 0.014 µM

## C[C@@H]1CCN(C(=O)CC#N)C[C@@H]1N(C)c1ncnc2[nH]ccc12 [Tofacitinib, reference compound]
CHO-K1 cells; 25 μM
  Inhibition of CHO viability at [25 μM] % Inhibition ± SD: 0.37 ± 4.3%

## COc1ccc(N(C)c2nc(NC/C=C(\C)CCC=C(C)C)nc3ccccc23)cc1 [compound 6]
[3]
  % Inhibition of mRNA at [4 μM] ± SD: 95.04 ± 0.77%
  % Inhibition of mRNA: 95.589% and 94.492%
[1]; [4]
  IC50: 0.101 µM
[1]; [5]
  IC50: 0.121 µM and 0.062 µM and 0.141 µM

Reference: PMC5761851, “Application of a phenotypic drug discovery strategy to identify biological and chemical starting points for inhibition of TSLP production in lung epithelial cells” (PLoS ONE, 2018)
